Results reported in patent publication US10519152B2, “Compounds and their use in treating cancer” (AstraZeneca AB, priority 2017, dated 2019).

What follows are compounds tested against T1, recombinant human Estrogen Receptor alpha ligand binding domain, residues 307-554 (ER alpha-LBD (GST)) (Homo sapiens, UniProt P03372) (assay: ERα binding assay (LanthaScreen TR-FRET competition)). Details: TR-FRET competition with Fluormone ES2 tracer, 4 hours at room temperature; single experiment or average of two or more.
T1 construct: made in house
T1 sequence (P03372 307-554): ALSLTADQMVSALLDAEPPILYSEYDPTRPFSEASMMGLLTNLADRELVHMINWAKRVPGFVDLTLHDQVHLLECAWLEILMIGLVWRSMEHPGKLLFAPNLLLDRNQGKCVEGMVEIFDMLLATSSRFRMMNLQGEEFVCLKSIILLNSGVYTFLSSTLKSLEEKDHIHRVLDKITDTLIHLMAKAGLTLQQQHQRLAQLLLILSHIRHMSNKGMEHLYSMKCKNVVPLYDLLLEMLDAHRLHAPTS
Compound `Cc1ncsc1-c1ccc(CNC(=O)[C@@H]2C[C@@H](O)CN2C(=O)[C@@H](NC(=O)C2(OCCCCCCOc3cc(F)c([C@@H]4c5[nH]c6ccccc6c5C[C@@H](C)N4CC(C)(C)F)c(F)c3)CC2)C(C)(C)C)cc1` [Example 118, (2S,4R)-1-((S)-2-(1-((6-(3,5-difluoro-4-((1R,3R)-2-(2-fluoro-2-methylpropyl)-3-methyl-2,3,4,9-tetrahydro-1H-pyrido[3,4-b]indol-1-yl)phenoxy)hexyl)oxy)cyclopropane-1-carboxamido)-3,3-dimethylbutanoyl)-4-hydroxy-N-(4-(4-methylthiazol-5-yl)benzyl)pyrrolidine-2-carboxamide] has an IC50 of 0.7 nM.
`Cc1ncsc1-c1ccc(CNC(=O)[C@@H]2C[C@@H](O)CN2C(=O)[C@@H](NC(=O)COCCOCCCCCOc2cnc([C@@H]3c4[nH]c5ccccc5c4C[C@@H](C)N3CC(F)(F)F)c(F)c2)C(C)(C)C)cc1` [Example 165, (2S,4R)-1-((S)-2-(2-(2-((5-((5-Fluoro-6-((1S,3R)-3-methyl-2-(2,2,2-trifluoroethyl)-2,3,4,9-tetrahydro-1H-pyrido[3,4-b]indol-1-yl)pyridin-3-yl)oxy)pentyl)oxy)ethoxy)acetamido)-3,3-dimethylbutanoyl)-4-hydroxy-N-(4-(4-methylthiazol-5-yl)benzyl)pyrrolidine-2-carboxamide] gave an IC50 of 11.4 nM.
With `Cc1ncsc1-c1ccc(CNC(=O)[C@@H]2C[C@@H](O)CN2C(=O)[C@@H](NC(=O)COCCCCOCCOc2cc(F)c([C@@H]3c4[nH]c5ccccc5c4C[C@@H](C)N3CC(C)(C)F)c(F)c2)C(C)(C)C)cc1` [Example 16, (2S,4R)-1-((S)-2-(2-(4-(2-(3,5-Difluoro-4-((1R,3R)-2-(2-fluoro-2-methylpropyl)-3-methyl-2,3,4,9-tetrahydro-1H-pyrido[3,4-b]indol-1-yl)phenoxy)ethoxy)butoxy)acetamido)-3,3-dimethylbutanoyl)-4-hydroxy-N-(4-(4-methylthiazol-5-yl)benzyl)pyrrolidine-2-carboxamide] the IC50 was 0.8 nM.
In the case of `Cc1ncsc1-c1ccc(CNC(=O)[C@@H]2C[C@@H](O)CN2C(=O)[C@@H](NC(=O)COCCCCCCCCOc2ccc([C@@H]3c4[nH]c5ccccc5c4C[C@@H](C)N3CC(F)F)nc2)C(C)(C)C)cc1` [Example 13, (2S,4R)-1-((S)-2-(2-((8-((6-((1S,3R)-2-(2,2-Difluoroethyl)-3-methyl-2,3,4,9-tetrahydro-1H-pyrido[3,4-b]indol-1-yl)pyridin-3-yl)oxy)octyl)oxy)acetamido)-3,3-dimethylbutanoyl)-4-hydroxy-N-(4-(4-methylthiazol-5-yl)benzyl)pyrrolidine-2-carboxamide], the IC50 is reported as 5 nM.
`Cc1ncsc1-c1ccc(CNC(=O)[C@@H]2C[C@@H](O)CN2C(=O)[C@@H](NC(=O)COCCC(C)(C)CCOc2cc(F)c([C@@H]3c4[nH]c5ccccc5c4C[C@@H](C)N3CC(C)(C)F)c(F)c2)C(C)(C)C)cc1` [Example 23, (2S,4R)-1-((S)-2-(2-((5-(3,5-Difluoro-4-((1R,3R)-2-(2-fluoro-2-methylpropyl)-3-methyl-2,3,4,9-tetrahydro-1H-pyrido[3,4-b]indol-1-yl)phenoxy)-3,3-dimethylpentyl)oxy)acetamido)-3,3-dimethylbutanoyl)-4-hydroxy-N-(4-(4-methylthiazol-5-yl)benzyl)pyrrolidine-2-carboxamide] was tested, and the IC50 was 1.1 nM.
`Cc1ncsc1-c1ccc(CNC(=O)[C@@H]2C[C@@H](O)CN2C(=O)[C@@H](NC(=O)COCCCCCCCOc2cc(F)c([C@@H]3c4[nH]c5ccccc5c4C[C@@H](C)N3CC(C)(C)F)c(F)c2)C(C)(C)C)cc1` [Example 7, (2S,4R)-1-((S)-2-(2-((7-(3,5-Difluoro-4-((1R,3R)-2-(2-fluoro-2-methylpropyl)-3-methyl-2,3,4,9-tetrahydro-1H-pyrido[3,4-b]indol-1-yl)phenoxy)heptyl)oxy)acetamido)-3,3-dimethylbutanoyl)-4-hydroxy-N-(4-(4-methylthiazol-5-yl)benzyl)pyrrolidine-2-carboxamide] gave an IC50 of 1.2 nM.
For `Cc1ncsc1-c1ccc([C@H](C)NC(=O)[C@@H]2C[C@@H](O)CN2C(=O)[C@@H](NC(=O)COCCCCCOCCOc2cc(F)c([C@@H]3c4[nH]c5ccccc5c4C[C@@H](C)N3CC(C)(C)F)c(F)c2)C(C)(C)C)cc1` [Example 157, (2S,4R)-1-((S)-2-(2-((5-(2-(3,5-Difluoro-4-((1R,3R)-2-(2-fluoro-2-methylpropyl)-3-methyl-2,3,4,9-tetrahydro-1H-pyrido[3,4-b]indol-1-yl)phenoxy)ethoxy)pentyl)oxy)acetamido)-3,3-dimethylbutanoyl)-4-hydroxy-N—((S)-1-(4-(4-methylthiazol-5-yl)phenyl)ethyl)pyrrolidine-2-carboxamide], the IC50 was 0.8 nM.
`Cc1ncsc1-c1ccc(CNC(=O)[C@@H]2C[C@@H](O)CN2C(=O)[C@@H](NC(=O)C(F)(F)OCCOCCCCOc2cc(F)c([C@@H]3c4[nH]c5ccccc5c4C[C@@H](C)N3CC(C)(C)F)c(F)c2)C(C)(C)C)cc1` [Example 121, (2S,4R)-1-((S)-2-(2-(2-(4-(3,5-Difluoro-4-((1R,3R)-2-(2-fluoro-2-methylpropyl)-3-methyl-2,3,4,9-tetrahydro-1H-pyrido[3,4-b]indol-1-yl)phenoxy)butoxy)ethoxy)-2,2-difluoroacetamido)-3,3-dimethylbutanoyl)-4-hydroxy-N-(4-(4-methylthiazol-5-yl)benzyl)pyrrolidine-2-carboxamide] was tested, and the IC50 was 0.7 nM.
